Test results as given in the supplement of paper PMC6045584.
± gives the standard deviation of the averaged measurements.

Columns and labels:
[1] = compound: C[C@]1(O)C[C@@H](c2nc(-c3ccc4ccc(-c5ccccc5)nc4c3)c3c(N)nccn32)C1 [OSI-906]; experiment: surviving fraction relative to DMSO-only wells; higher = less growth inhibition; conditions: exposure time: 5 days
Method in brief: (§1)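 In 384-well plates, 250–500 log-phase tumour cells per well were given 24 hours before five days of continuous exposure to inhibitors at 0.5, 1, 5, 10, 50, 100, 500 and 1000 nM. Surviving fraction is luminescence from CellTiter-Glo, normalised to the median of wells containing DMSO alone. Reading took place after 10 minutes at room temperature.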

[2] = compound: O=C(O)C1(C(=O)O)CCC1.[NH2-].[NH2-].[Pt+2] [CARBOPLATIN]; experiment: as above; conditions: exposure time: 5 days
Method in brief: as §1

Test System | surviving fraction ([1]; 0.5 nM) | surviving fraction ([1]; 1 nM) | surviving fraction ([1]; 5 nM) | surviving fraction ([1]; 10 nM) | surviving fraction ([1]; 50 nM) | surviving fraction ([1]; 100 nM) | surviving fraction ([1]; 500 nM) | surviving fraction ([1]; 1000 nM) | surviving fraction ([2]; 0.5 nM) | surviving fraction ([2]; 1 nM) | surviving fraction ([2]; 5 nM) | surviving fraction ([2]; 10 nM) | surviving fraction ([2]; 50 nM) | surviving fraction ([2]; 100 nM) | surviving fraction ([2]; 500 nM) | surviving fraction ([2]; 1000 nM)
CADOES1 SOFT TISSUE | 1.025 ± 0.0076 | 1.04 ± 0.024 | 0.957 ± 0.096 | 1.02 ± 0.036 | 0.847 ± 0.14 | 0.886 ± 0.1 | 0.871 ± 0.059 | 0.962 ± 0.023 | 0.992 ± 0.13 | 0.966 ± 0.11 | 0.934 ± 0.052 | 0.987 ± 0.15 | 0.96 ± 0.11 | 0.962 ± 0.078 | 1.1 ± 0.11 | 1.02 ± 0.11
ASKA SYNOVIAL | 0.934 ± 0.059 | 0.99 ± 0.057 | 1.01 ± 0.011 | 1.07 ± 0.071 | 1.11 ± 0.13 | 1.12 ± 0.045 | 0.966 ± 0.083 | 0.97 ± 0.029 | 1.03 ± 0.06 | 1.05 ± 0.022 | 1.16 ± 0.088 | 1.17 ± 0.061 | 1.14 ± 0.073 | 1.27 ± 0.1 | 1.1 ± 0.097 | 1.09 ± 0.086
CCK81 LARGE INTESTINE | 0.782 ± 0.2 | 0.815 ± 0.089 | 0.87 ± 0.051 | 0.784 ± 0.036 | 0.726 ± 0.17 | 0.668 ± 0.13 | 0.414 ± 0.13 | 0.327 ± 0.058 | 0.883 ± 0.042 | 0.866 ± 0.092 | 0.835 ± 0.083 | 0.831 ± 0.093 | 0.77 ± 0.038 | 0.782 ± 0.081 | 0.784 ± 0.082 | 0.725 ± 0.043
C33A CERVIX | 0.981 ± 0.054 | 0.945 ± 0.052 | 1.08 ± 0.011 | 1.1 ± 0.053 | 1.02 ± 0.13 | 1.05 ± 0.14 | 1.06 ± 0.096 | 0.985 ± 0.011 | 1.14 ± 0.063 | 1.14 ± 0.085 | 1.19 ± 0.082 | 1.43 ± 0.17 | 1.21 ± 0.066 | 1.43 ± 0.13 | 1.15 ± 0.051 | 1.31 ± 0.024
MDAMB436 BREAST | 0.805 ± 0.047 | 0.875 ± 0.055 | 0.887 ± 0.17 | 0.828 ± 0.054 | 0.948 ± 0.11 | 0.89 ± 0.068 | 0.985 ± 0.15 | 0.855 ± 0.12 | 0.923 ± 0.041 | 0.92 ± 0.019 | 0.998 ± 0.15 | 0.924 ± 0.11 | 1.09 ± 0.21 | 0.906 ± 0.078 | 1.02 ± 0.033 | 0.924 ± 0.088
H23 LUNG | 0.902 ± 0.047 | 0.897 ± 0.044 | 0.931 ± 0.05 | 0.904 ± 0.03 | 0.879 ± 0.031 | 0.848 ± 0.061 | 0.662 ± 0.016 | 0.607 ± 0.03 | 1.06 ± 0.038 | 1.08 ± 0.029 | 1.07 ± 0.013 | 1.01 ± 0.03 | 1.03 ± 0.037 | 1.15 ± 0.02 | 1.09 ± 0.046 | 1.11 ± 0.067
MHM BONE | 0.996 ± 0.021 | 0.978 ± 0.026 | 1.03 ± 0.025 | 0.999 ± 0.032 | 0.91 ± 0.05 | 0.872 ± 0.013 | 0.78 ± 0.022 | 0.721 ± 0.018 | 1.01 ± 0.027 | 1.02 ± 0.025 | 1.08 ± 0.044 | 1.06 ± 0.058 | 1.09 ± 0.014 | 1.07 ± 0.028 | 1.02 ± 0.04 | 1.035 ± 0.0078
SCC36 HEADNECK | 0.783 ± 0.039 | 0.816 ± 0.062 | 0.796 ± 0.083 | 0.805 ± 0.055 | 0.742 ± 0.076 | 0.834 ± 0.066 | 0.64 ± 0.19 | 0.57 ± 0.046 | 1.07 ± 0.03 | 0.992 ± 0.15 | 1.09 ± 0.096 | 1.07 ± 0.097 | 1.06 ± 0.17 | 1.04 ± 0.078 | 1.05 ± 0.031 | 0.85 ± 0.12
CME SYNOVIAL | 0.905 ± 0.26 | 0.854 ± 0.13 | 0.934 ± 0.15 | 0.973 ± 0.075 | 1.08 ± 0.058 | 1.14 ± 0.21 | 0.984 ± 0.095 | 0.823 ± 0.13 | 1.25 ± 0.15 | 1.36 ± 0.039 | 1.4 ± 0.047 | 1.48 ± 0.061 | 1.35 ± 0.16 | 1.42 ± 0.024 | 1.3 ± 0.14 | 1.39 ± 0.082
MFM223 BREAST | 0.716 ± 0.049 | 0.791 ± 0.1 | 0.768 ± 0.092 | 0.811 ± 0.15 | 1.05 ± 0.095 | 1.02 ± 0.088 | 1.09 ± 0.013 | 1.04 ± 0.017 | 1.22 ± 0.071 | 1.22 ± 0.18 | 1.22 ± 0.18 | 1.15 ± 0.18 | 1.16 ± 0.021 | 1.12 ± 0.094 | 1.11 ± 0.077 | 1.06 ± 0.11
MDAMB361 BREAST | 0.669 ± 0.025 | 0.682 ± 0.024 | 0.721 ± 0.04 | 0.741 ± 0.061 | 0.847 ± 0.067 | 0.842 ± 0.011 | 0.758 ± 0.015 | 0.797 ± 0.033 | 0.791 ± 0.041 | 0.821 ± 0.11 | 0.808 ± 0.043 | 0.762 ± 0.029 | 0.873 ± 0.062 | 0.754 ± 0.1 | 0.798 ± 0.046 | 0.785 ± 0.028
HCT15 LARGE INTESTINE | 0.829 ± 0.073 | 0.82 ± 0.048 | 0.811 ± 0.069 | 0.871 ± 0.086 | 0.929 ± 0.061 | 0.918 ± 0.023 | 0.911 ± 0.073 | 0.921 ± 0.04 | 1.1 ± 0.067 | 1.04 ± 0.056 | 1.04 ± 0.065 | 1.03 ± 0.096 | 1.06 ± 0.072 | 1.09 ± 0.045 | 1.06 ± 0.036 | 1.08 ± 0.04
SIHA CERVIX | 0.931 ± 0.067 | 0.888 ± 0.012 | 0.992 ± 0.11 | 0.886 ± 0.056 | 1.04 ± 0.057 | 1.01 ± 0.065 | 0.935 ± 0.046 | 0.966 ± 0.026 | 1.14 ± 0.065 | 1.18 ± 0.038 | 1.13 ± 0.088 | 1.21 ± 0.094 | 1.16 ± 0.1 | 1.21 ± 0.044 | 1.08 ± 0.048 | 1.14 ± 0.02
CAL120 BREAST | 0.895 ± 0.052 | 0.907 ± 0.054 | 0.937 ± 0.041 | 0.942 ± 0.026 | 0.901 ± 0.04 | 0.9 ± 0.066 | 0.895 ± 0.046 | 0.893 ± 0.058 | 1.02 ± 0.044 | 0.927 ± 0.023 | 1.02 ± 0.04 | 0.977 ± 0.027 | 1.02 ± 0.044 | 0.993 ± 0.033 | 0.986 ± 0.04 | 0.976 ± 0.034
MDAMB453 BREAST | 1.03 ± 0.03 | 1.03 ± 0.016 | 1.077 ± 0.0087 | 1.06 ± 0.021 | 1.06 ± 0.051 | 1.04 ± 0.014 | 1.02 ± 0.042 | 0.98 ± 0.035 | 1.07 ± 0.068 | 1.05 ± 0.07 | 1.15 ± 0.024 | 1.1 ± 0.076 | 1.07 ± 0.018 | 1.1 ± 0.069 | 1.01 ± 0.02 | 0.993 ± 0.011
T47D BREAST | 0.9222 ± 0.0086 | 0.933 ± 0.038 | 0.9888 ± 0.0092 | 0.917 ± 0.02 | 0.982 ± 0.058 | 0.954 ± 0.028 | 0.868 ± 0.018 | 0.85 ± 0.018 | 1.02 ± 0.049 | 1.04 ± 0.04 | 1.04 ± 0.083 | 1.01 ± 0.019 | 1.05 ± 0.013 | 1.05 ± 0.059 | 1.05 ± 0.028 | 1.03 ± 0.042
KPD BONE | 0.958 ± 0.037 | 0.978 ± 0.051 | 0.9457 ± 0.0072 | 0.952 ± 0.097 | 0.796 ± 0.018 | 0.557 ± 0.021 | 0.112 ± 0.0049 | 0.081 ± 0.019 | 1.02 ± 0.032 | 1.07 ± 0.065 | 1.12 ± 0.033 | 1.05 ± 0.051 | 1.09 ± 0.02 | 1.1 ± 0.05 | 1.04 ± 0.084 | 1.03 ± 0.016
HSSYII SYNOVIAL | 0.8472 ± 0.0081 | 0.85 ± 0.027 | 0.9002 ± 0.0069 | 0.798 ± 0.021 | 0.814 ± 0.026 | 0.746 ± 0.04 | 0.673 ± 0.03 | 0.656 ± 0.026 | 0.965 ± 0.035 | 0.957 ± 0.015 | 0.975 ± 0.023 | 0.963 ± 0.089 | 0.965 ± 0.05 | 0.97 ± 0.016 | 0.959 ± 0.037 | 0.958 ± 0.089
BT549 BREAST | 0.867 ± 0.08 | 0.792 ± 0.027 | 0.836 ± 0.048 | 0.88 ± 0.13 | 1.11 ± 0.18 | 0.984 ± 0.059 | 1.1 ± 0.096 | 0.94 ± 0.067 | 1.08 ± 0.038 | 1.19 ± 0.04 | 1.06 ± 0.081 | 1.05 ± 0.03 | 1.05 ± 0.097 | 1.2 ± 0.072 | 0.967 ± 0.034 | 1.16 ± 0.032
